Results on seven molecules are retold here after ChEMBL document CHEMBL3822442, “Synthesis and Pharmacological Characterization of Novel Glucagon-like Peptide-2 (GLP-2) Analogues with Low Systemic Clearance” (J Med Chem, 2016).

As usually defined, the EC50 is the concentration at which the effect is half-maximal. Lower therefore signals an effect from little substance. In general, clearance refers to the rate of elimination divided by the concentration. High values mean efficient removal, low ones inefficient removal.

Data set [1] concerns HEK293. Nature of the data set: Selectivity ratio of EC50 for human GLP1R expressed in HEK293 cells to EC50 for human GLP2R expressed in HEK293. It is filed as cell-based.
Data set [2] deals with T1, Glucagon-like peptide 1 receptor (Homo sapiens, UniProt P43220). Kind of data set: Agonist activity at human GLP1R expressed in HEK293 cells at 30 nM after 5 hrs by luciferase reporter gene assay. Format: cell-based.
T1 sequence (P43220 whole entry): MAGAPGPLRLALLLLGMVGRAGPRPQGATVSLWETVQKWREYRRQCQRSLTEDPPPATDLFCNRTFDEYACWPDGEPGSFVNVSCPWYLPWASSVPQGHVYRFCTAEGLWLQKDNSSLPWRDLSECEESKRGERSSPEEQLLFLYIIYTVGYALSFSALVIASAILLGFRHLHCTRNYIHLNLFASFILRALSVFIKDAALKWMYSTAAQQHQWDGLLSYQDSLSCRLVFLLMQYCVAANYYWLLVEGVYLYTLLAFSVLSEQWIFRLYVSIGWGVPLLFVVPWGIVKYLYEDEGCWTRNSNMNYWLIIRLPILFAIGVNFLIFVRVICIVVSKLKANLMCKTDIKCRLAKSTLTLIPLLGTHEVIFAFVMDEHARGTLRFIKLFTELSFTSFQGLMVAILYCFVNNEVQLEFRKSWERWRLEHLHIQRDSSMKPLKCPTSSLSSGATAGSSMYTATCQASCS
Data set [3] concerns the target Glucagon receptor (Homo sapiens) (UniProt P47871). Nature of the data set: Agonist activity at human GCGR expressed in HEK293 cells after 5 hrs by luciferase reporter gene assay. It is filed as cell-based.
Data set [4] deals with T2, Glucagon-like peptide 2 receptor (Homo sapiens, UniProt O95838).
T2 sequence (O95838 whole entry): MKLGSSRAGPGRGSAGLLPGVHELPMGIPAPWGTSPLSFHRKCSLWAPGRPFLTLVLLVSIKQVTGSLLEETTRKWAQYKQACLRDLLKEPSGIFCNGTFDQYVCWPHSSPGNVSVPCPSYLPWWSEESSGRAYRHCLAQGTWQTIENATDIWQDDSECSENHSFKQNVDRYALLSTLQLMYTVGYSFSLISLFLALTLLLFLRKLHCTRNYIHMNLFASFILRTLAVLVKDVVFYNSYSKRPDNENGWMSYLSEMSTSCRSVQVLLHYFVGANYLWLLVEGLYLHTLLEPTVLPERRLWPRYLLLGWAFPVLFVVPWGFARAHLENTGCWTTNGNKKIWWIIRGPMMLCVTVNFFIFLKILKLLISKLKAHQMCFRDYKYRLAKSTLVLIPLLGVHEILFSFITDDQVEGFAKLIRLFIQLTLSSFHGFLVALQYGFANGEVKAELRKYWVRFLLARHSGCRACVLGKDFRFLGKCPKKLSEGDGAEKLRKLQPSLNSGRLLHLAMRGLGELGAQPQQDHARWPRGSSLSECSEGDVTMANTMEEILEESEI
Kind of data set: Agonist activity at human GLP2R expressed in HEK293 cells after 5 hrs by luciferase reporter gene assay. It is filed as cell-based.

The target of data set [5] is T1, Glucagon-like peptide 1 receptor. Nature of the data set: Agonist activity at human GLP1R expressed in HEK293 cells after 5 hrs by luciferase reporter gene assay. Format: cell-based. (In general: Reporter assays use an easily measured gene product as a stand-in for the process of interest.)
The target of data set [6] is T3, Glucagon-like peptide 2 receptor (Homo sapiens) (UniProt O95838).
T3 sequence (whole entry): T2 sequence (O95838 whole entry)
Kind of data set: Potency index, ratio of compound EC50 to compound 2 EC50 for human GLP2R expressed in HEK293 cells. Format: cell-based.

Data set [7] in a line: Systemic clearance in Sprague-Dawley rat at 0.2 mg/kg, iv through cassette dosing measured up to 300 mins by LC/MS/MS analysis. Format: ADME, organism-based. Conditions: in vivo.

Calls of active or inactive are those of the source. The calls are words filed in the database; no cut-off is given here.

Glucagon receptor (Homo sapiens), sequence (P47871 whole entry): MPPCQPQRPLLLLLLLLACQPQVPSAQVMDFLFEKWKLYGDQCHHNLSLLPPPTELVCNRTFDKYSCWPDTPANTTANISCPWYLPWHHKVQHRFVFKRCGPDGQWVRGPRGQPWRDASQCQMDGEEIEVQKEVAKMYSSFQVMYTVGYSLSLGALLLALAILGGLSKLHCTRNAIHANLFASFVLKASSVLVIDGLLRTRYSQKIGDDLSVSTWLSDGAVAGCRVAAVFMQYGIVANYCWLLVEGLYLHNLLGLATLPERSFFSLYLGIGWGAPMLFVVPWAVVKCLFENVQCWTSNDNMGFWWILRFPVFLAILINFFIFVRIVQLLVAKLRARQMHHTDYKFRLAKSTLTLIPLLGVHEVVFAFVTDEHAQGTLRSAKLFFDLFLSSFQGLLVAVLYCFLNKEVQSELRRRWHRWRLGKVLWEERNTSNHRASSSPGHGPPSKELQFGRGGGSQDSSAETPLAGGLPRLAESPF

As to `CCCCC(NC(=O)[C@H](CCC(=O)O)NC(=O)[C@H](CC(=O)O)NC(=O)[C@H](CO)NC(=O)[C@H](Cc1ccccc1)NC(=O)[C@H](CO)NC(=O)CNC(=O)[C@H](CC(=O)O)NC(=O)CNC(=O)[C@@H](N)Cc1cnc[nH]1)C(=O)N[C@H](Cc1ccccc1)C(=O)N[C@H](C(=O)N[C@H](C(=O)N[C@@H](CC(C)C)C(=O)N[C@@H](CC(=O)O)C(=O)N[C@@H](CC(N)=O)C(=O)N[C@@H](CC(C)C)C(=O)N[C@@H](C)C(=O)N[C@@H](C)C(=O)N[C@@H](CCCNC(=N)N)C(=O)N[C@@H](CC(=O)O)C(=O)N[C@@H](Cc1ccccc1)C(=O)N[C@H](C(=O)N[C@@H](CC(N)=O)C(=O)N[C@@H](Cc1c[nH]c2ccccc12)C(=O)N[C@@H](CC(C)C)C(=O)N[C@H](C(=O)N[C@@H](CCC(N)=O)C(=O)N[C@H](C(=O)N[C@@H](CCCCN)C(N)=O)[C@@H](C)O)[C@@H](C)CC)[C@@H](C)CC)[C@@H](C)CC)[C@@H](C)O` (stereo partly specified), the Ratio EC50 in data set [1] is 1300. The molecule further registered an Efficacy in data set [2] of 64%. Further, the result in data set [3] was inactive.

With `CCCCC(NC(=O)[C@H](CCC(=O)O)NC(=O)[C@H](CC(=O)O)NC(=O)[C@H](CO)NC(=O)[C@H](Cc1ccccc1)NC(=O)[C@H](CO)NC(=O)CNC(=O)[C@H](CC(=O)O)NC(=O)CNC(=O)[C@@H](N)Cc1cnc[nH]1)C(=O)N[C@@H](CC(C)C)C(=O)N[C@H](C(=O)N[C@H](C(=O)N[C@@H](CC(C)C)C(=O)N[C@@H](CC(=O)O)C(=O)N[C@@H](CC(N)=O)C(=O)N[C@@H](CC(C)C)C(=O)N[C@@H](C)C(=O)N[C@@H](C)C(=O)N[C@@H](CCCNC(=N)N)C(=O)N[C@@H](CC(=O)O)C(=O)N[C@@H](Cc1ccccc1)C(=O)N[C@H](C(=O)N[C@@H](CC(N)=O)C(=O)N[C@@H](Cc1c[nH]c2ccccc12)C(=O)N[C@@H](CC(C)C)C(=O)N[C@H](C(=O)N[C@@H](CCC(N)=O)C(=O)N[C@H](C(=O)N[C@@H](CCCCN)C(N)=O)[C@@H](C)O)[C@@H](C)CC)[C@@H](C)CC)[C@@H](C)CC)[C@@H](C)O` (stereo partly specified), the values for the concentration for a half-maximal effect (EC50) in data set [4] and in data set [5] were 0.15 nM and 180 nM, respectively. Moreover, the Efficacy in data set [2] amounted to 44%. For the same molecule, the outcome in data set [3] was inactive.

`CC[C@H](C)[C@H](NC(=O)[C@H](Cc1ccccc1)NC(=O)[C@H](CC(=O)O)NC(=O)[C@H](CCCNC(=N)N)NC(=O)[C@H](C)NC(=O)[C@H](C)NC(=O)[C@H](CC(C)C)NC(=O)[C@H](CC(N)=O)NC(=O)[C@H](CC(=O)O)NC(=O)[C@H](CC(C)C)NC(=O)[C@@H](NC(=O)[C@@H](NC(=O)[C@H](CC(N)=O)NC(=O)[C@H](CCSC)NC(=O)[C@H](CCC(=O)O)NC(=O)[C@H](CC(=O)O)NC(=O)[C@H](CO)NC(=O)[C@H](Cc1ccccc1)NC(=O)[C@H](CO)NC(=O)CNC(=O)[C@H](CC(=O)O)NC(=O)[C@H](C)NC(=O)[C@@H](N)Cc1cnc[nH]1)[C@@H](C)O)[C@@H](C)CC)C(=O)N[C@@H](CC(N)=O)C(=O)N[C@@H](Cc1c[nH]c2ccccc12)C(=O)N[C@@H](CC(C)C)C(=O)N[C@H](C(=O)N[C@@H](CCC(N)=O)C(=O)N[C@H](C(=O)N[C@@H](CCCCN)C(=O)N[C@H](C(=O)N[C@H](C(=O)N[C@@H](CC(=O)O)C(=O)O)[C@@H](C)O)[C@@H](C)CC)[C@@H](C)O)[C@@H](C)CC`: in data set [2], the Efficacy is 71%.

For H-HGDGSFSDEMNTILDNLAARDFINWLIQTK-NH2, the Ratio EC50 in data set [1] was above 4500; in data set [6], 2.4. Besides, the values for the half-maximal effective concentration (EC50) in data set [4] and in data set [5] were 0.22 nM and above 1000 nM, respectively. Also, the clearance in data set [7] amounted to 20 mL/min/kg.

Consider `CCCCC(NC(=O)[C@H](CCC(=O)O)NC(=O)[C@H](CC(=O)O)NC(=O)[C@H](CO)NC(=O)[C@H](Cc1ccccc1)NC(=O)[C@H](CO)NC(=O)CNC(=O)[C@H](CC(=O)O)NC(=O)CNC(=O)[C@@H](N)Cc1cnc[nH]1)C(=O)N[C@H](Cc1ccc(Cl)cc1)C(=O)N[C@H](C(=O)N[C@H](C(=O)N[C@@H](CC(C)C)C(=O)N[C@@H](CC(=O)O)C(=O)N[C@@H](CC(N)=O)C(=O)N[C@@H](CC(C)C)C(=O)N[C@@H](C)C(=O)N[C@@H](C)C(=O)N[C@@H](CCCNC(=N)N)C(=O)N[C@@H](CC(=O)O)C(=O)N[C@@H](Cc1ccccc1)C(=O)N[C@H](C(=O)N[C@@H](CC(N)=O)C(=O)N[C@@H](Cc1c[nH]c2ccccc12)C(=O)N[C@@H](CC(C)C)C(=O)N[C@H](C(=O)N[C@@H](CCC(N)=O)C(=O)N[C@H](C(=O)N[C@@H](CCCCN)C(N)=O)[C@@H](C)O)[C@@H](C)CC)[C@@H](C)CC)[C@@H](C)CC)[C@@H](C)O` (stereo partly specified), for which the Ratio EC50 in data set [1] turned out to be 660. Moreover, in data set [2], the Efficacy is 86%. The result in data set [3] was inactive.

Take `CCCCC(NC(=O)[C@@H](CCC(=O)O)NC(=O)[C@H](CC(=O)O)NC(=O)[C@H](CO)NC(=O)[C@H](Cc1ccccc1)NC(=O)[C@H](CO)NC(=O)CNC(=O)[C@H](CC(=O)O)NC(=O)CNC(=O)[C@@H](N)Cc1cnc[nH]1)C(=O)N[C@@H](CC(N)=O)C(=O)N[C@H](C(=O)N[C@H](C(=O)N[C@@H](CC(C)C)C(=O)N[C@@H](CC(=O)O)C(=O)N[C@@H](CC(N)=O)C(=O)N[C@@H](CC(C)C)C(=O)N[C@@H](C)C(=O)N[C@@H](C)C(=O)N[C@@H](CCCNC(=N)N)C(=O)N[C@@H](CC(=O)O)C(=O)N[C@@H](Cc1ccccc1)C(=O)N[C@H](C(=O)N[C@@H](CC(N)=O)C(=O)N[C@@H](Cc1c[nH]c2ccccc12)C(=O)N[C@@H](CC(C)C)C(=O)N[C@H](C(=O)N[C@@H](CCC(N)=O)C(=O)N[C@H](C(=O)N[C@@H](CCCCN)C(N)=O)[C@@H](C)O)[C@@H](C)CC)[C@@H](C)CC)[C@@H](C)CC)[C@@H](C)O` (stereo partly specified): the Ratio EC50 in data set [1] is above 140; in data set [6], 32. In addition, the figures for the EC50 in data set [4] and in data set [5] were 7.1 nM and above 1000 nM, respectively. Besides, the outcome in data set [3] was inactive.

Regarding `CCCCC(NC(=O)[C@H](CCC(=O)O)NC(=O)[C@H](CC(=O)O)NC(=O)[C@H](CO)NC(=O)[C@H](Cc1ccccc1)NC(=O)[C@H](CO)NC(=O)CNC(=O)[C@H](CC(=O)O)NC(=O)CNC(=O)[C@@H](N)Cc1cnc[nH]1)C(=O)N[C@@H](CC(N)=O)C(=O)N[C@H](C(=O)N[C@H](C(=O)N[C@@H](CC(C)C)C(=O)N[C@@H](CC(=O)O)C(=O)N[C@@H](CC(N)=O)C(=O)N[C@@H](CC(C)C)C(=O)N[C@@H](C)C(=O)N[C@@H](C)C(=O)N[C@@H](CCCNC(=N)N)C(=O)N[C@@H](CC(=O)O)C(=O)N[C@@H](Cc1ccccc1)C(=O)N[C@H](C(=O)N[C@@H](CC(N)=O)C(=O)N[C@@H](Cc1c[nH]c2ccccc12)C(=O)N[C@@H](CC(C)C)C(=O)N[C@H](C(=O)N[C@@H](CCC(N)=O)C(=O)N[C@H](C(=O)N[C@H](CCCCN)C(N)=O)[C@@H](C)O)[C@@H](C)CC)[C@@H](C)CC)[C@@H](C)CC)[C@@H](C)O` (stereo partly specified), the Ratio EC50 was above 2600 in data set [1] and 1.7 in data set [6]. For the same molecule, the EC50 in data set [4] is 0.38 nM; in data set [5] it was above 1000 nM. The result in data set [3] was inactive.
